The source of these data is publication PMC4511007 (PLoS ONE, 2015).

In one data set the test system is RV venom PLA2. Description: Indirect haemolytic activity (RV venom PLA2 inhibition). Type of data set: biochemical, Vipera russelli. As to conditions: 1 μg RV venom pre-incubated with compound 10 min at 37°C, NS: Not Significant.
In the next data set the target is VRV-PLA2-VIII (Daboia russelii, UniProt P59071). Description: biochemical. More on the design: species or system Vipera russelli.

Read-outs that look alike come from different tables or passages of the source.

VRV-PLA2-VIII, sequence (P59071 whole entry, looked up): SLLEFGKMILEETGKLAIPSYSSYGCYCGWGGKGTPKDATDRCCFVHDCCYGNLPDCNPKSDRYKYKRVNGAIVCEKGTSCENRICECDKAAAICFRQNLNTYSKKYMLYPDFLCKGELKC

Consider `CC(=O)c1c(C)nc2c(-c3ccc(Cl)c(C(F)(F)F)c3)cccn12` [3a, 1-(8-(4-chloro-3-(trifluoromethyl)phenyl)-2-methylimidazo[1,2-a]pyridin-3-yl)ethanone], for which the melting point was in the range of 141 to 143 °C. The IC50 with RV venom PLA2 is 110 µM. At VRV-PLA2-VIII, this compound had an IC50 of 155 µM.
In turn, `CC(=O)c1c(C)nc2c(-c3ccc(OCc4ccccc4)c(F)c3)cccn12` [3b, 1-(8-(4-(benzyloxy)-3-fluorophenyl)-2-methylimidazo[1,2-a]pyridin-3-yl)ethanone] gave a melting point of 154 to 156 °C. Moreover, the IC50 in the data set on RV venom PLA2 was more than 500 µM. This compound showed an IC50 against VRV-PLA2-VIII of 140 µM.
The compound `CC(=O)c1c(C)nc2c(-c3ccccc3)cccn12` [3c, 1-(2-methyl-8-phenylimidazo[1,2-a]pyridin-3-yl)ethanone] showed a melting point of 160 to 162 °C. The IC50 in the data set on RV venom PLA2 was determined as 194 µM.
As for `CC(=O)c1c(C)nc2c(-c3cccc(Cl)c3)cccn12` [3d, 1-(8-(3-chlorophenyl)-2-methylimidazo[1,2-a]pyridin-3-yl)ethanone], the melting point lay within 114 to 116 °C. Moreover, the IC50 in the data set on RV venom PLA2 turned out to be 59.1 µM. This compound displayed an IC50 against VRV-PLA2-VIII of 89.1 µM.
Compound `COc1cccc(-c2cccn3c(C(C)=O)c(C)nc23)c1` [3e, 1-(8-(3-methoxyphenyl)-2-methylimidazo[1,2-a]pyridin-3-yl)ethanone] yielded a melting point of 116 to 119 °C. Moreover, the IC50 in the data set on RV venom PLA2 is 46.4 µM. Moreover, it took 65.3 µM to reach half-maximal inhibition on VRV-PLA2-VIII (IC50).
Compound `CC(=O)c1c(C)nc2c(-c3cccc4ccccc34)cccn12` [3f, 1-(2-methyl-8-(naphthalen-1-yl)imidazo[1,2-a]pyridin-3-yl)ethanone] returned a melting point of 179 to 182 °C. Also, in the data set with RV venom PLA2, the IC50 came out at 14.3 µM. Besides, 23.1 µM corresponded to half-maximal inhibition against VRV-PLA2-VIII (IC50).
With `CC(=O)c1c(C)nc2c(-c3ccc(Cl)cc3)cccn12` [3g, 1-(8-(4-chlorophenyl)-2-methylimidazo[1,2-a]pyridin-3-yl)ethanone], the melting point lay in the range of 111 to 114 °C. Besides, the IC50 in the data set on RV venom PLA2 was 219 µM. Also, at VRV-PLA2-VIII, it took 195 µM to reach half-maximal inhibition (IC50).
In the same order, the values of `CCC(CCc1cccn2c(C(C)=O)c(C)nc12)C(=O)NC1CCCC1` (centres unmarked) [3h, 4-(3-acetyl-2-methylimidazo[1,2-a]pyridin-8-yl)-N-cyclopentyl-2-ethylbutanamide] are 117 to 119 °C, 105 µM and 114 µM.
In the case of `COc1cccc(-c2cccn3c(C(C)=O)c(C)nc23)c1F` [3i, 1-(8-(2-fluoro-3-methoxyphenyl)-2-methylimidazo[1,2-a]pyridin-3-yl)ethanone], the melting point lay within 190 to 192 °C. The IC50 in the data set with RV venom PLA2 was 123 µM. This compound also had an IC50 against VRV-PLA2-VIII of 135 µM.
The compound `CC(=O)c1c(C)nc2c(-c3ccccc3C)cccn12` [3j, 1-(2-methyl-8-(o-tolyl)imidazo[1,2-a]pyridin-3-yl)ethanone] showed a melting point of 157 to 159 °C. In the data set on RV venom PLA2, the IC50 amounted to 166 µM. Also, at VRV-PLA2-VIII, the IC50 turned out to be 189 µM.
For the compound `CC(=O)c1c(C)nc2c(-c3ccc(C(F)(F)F)cc3)cccn12` [3k, 1-(2-methyl-8-(4-(trifluoromethyl)phenyl)imidazo[1,2-a]pyridin-3-yl)ethanone], the melting point lay within 121 to 123 °C. For the same compound, the IC50 in the data set with RV venom PLA2 is more than 500 µM. For the same compound, the IC50 on VRV-PLA2-VIII (read-out: IC50 (μM) VRV-PLA2-VIII) was more than 100 µM.
In turn, `CCc1ccc(-c2cccn3c(C(C)=O)c(C)nc23)cc1` [3l, 1-(8-(4-ethylphenyl)-2-methylimidazo[1,2-a]pyridin-3-yl)ethanone] returned a melting point of 169 to 172 °C. Besides, in the data set on RV venom PLA2, the IC50 is more than 500 µM. Besides, at VRV-PLA2-VIII, half-maximal inhibition (IC50) required 43.2 µM.

Broadly, the IC50 is the concentration needed to halve the response being measured. The term melting point denotes the temperature of the solid-liquid transition.
